Measured values: patent US8592448B2 (OSI Pharmaceuticals, LLC, priority 2008, dated 2013)

Experiments:
phosphorylated c-MET = target: T1, phosphorylated c-MET (Homo sapiens, UniProt P08581); test: c-MET cell mechanistic assay (phosphorylated c-MET in MKN45 cells); format: cell-based; conditions: MKN45 cell line, four hours incubation, phosphorylated c-MET levels, at least duplicate experiments; read-out: Met mech IC50
T1 construct: endogenous in cells; host or cells: MKN45
Summary of the method: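 MKN45 cells were treated 4 h at 37 °C with a 6-point dilution series (typically 10 μM to 3 nM; final 0.5% DMSO). Phospho-c-MET (pY1230/1234/1235) in lysates was measured by capture ELISA with HRP read-out at 450 nm. IC50 came from a four-parameter fit of percent of DMSO control.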

MKN45 cells = test: MKN45 cell proliferation assay (CellTiter-Glo); format: cell-based; conditions: Homo sapiens, MKN-45, 72 h, MKN45 cell line, 3 days incubation, at least duplicate experiments, read-out: Prolif. IC50
Summary of the method: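 MKN45 cells (5000/well, RPMI + 10% FCS) plated overnight, then exposed to 8-point dilution series, typically 10 μM to 0.6 nM, in 0.1% DMSO for 3 days at 37 °C. CellTiter-Glo luminescence as % of DMSO control; IC50 from four-parameter fit, at least duplicate experiments.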

T1 sequence (P08581 25-1390): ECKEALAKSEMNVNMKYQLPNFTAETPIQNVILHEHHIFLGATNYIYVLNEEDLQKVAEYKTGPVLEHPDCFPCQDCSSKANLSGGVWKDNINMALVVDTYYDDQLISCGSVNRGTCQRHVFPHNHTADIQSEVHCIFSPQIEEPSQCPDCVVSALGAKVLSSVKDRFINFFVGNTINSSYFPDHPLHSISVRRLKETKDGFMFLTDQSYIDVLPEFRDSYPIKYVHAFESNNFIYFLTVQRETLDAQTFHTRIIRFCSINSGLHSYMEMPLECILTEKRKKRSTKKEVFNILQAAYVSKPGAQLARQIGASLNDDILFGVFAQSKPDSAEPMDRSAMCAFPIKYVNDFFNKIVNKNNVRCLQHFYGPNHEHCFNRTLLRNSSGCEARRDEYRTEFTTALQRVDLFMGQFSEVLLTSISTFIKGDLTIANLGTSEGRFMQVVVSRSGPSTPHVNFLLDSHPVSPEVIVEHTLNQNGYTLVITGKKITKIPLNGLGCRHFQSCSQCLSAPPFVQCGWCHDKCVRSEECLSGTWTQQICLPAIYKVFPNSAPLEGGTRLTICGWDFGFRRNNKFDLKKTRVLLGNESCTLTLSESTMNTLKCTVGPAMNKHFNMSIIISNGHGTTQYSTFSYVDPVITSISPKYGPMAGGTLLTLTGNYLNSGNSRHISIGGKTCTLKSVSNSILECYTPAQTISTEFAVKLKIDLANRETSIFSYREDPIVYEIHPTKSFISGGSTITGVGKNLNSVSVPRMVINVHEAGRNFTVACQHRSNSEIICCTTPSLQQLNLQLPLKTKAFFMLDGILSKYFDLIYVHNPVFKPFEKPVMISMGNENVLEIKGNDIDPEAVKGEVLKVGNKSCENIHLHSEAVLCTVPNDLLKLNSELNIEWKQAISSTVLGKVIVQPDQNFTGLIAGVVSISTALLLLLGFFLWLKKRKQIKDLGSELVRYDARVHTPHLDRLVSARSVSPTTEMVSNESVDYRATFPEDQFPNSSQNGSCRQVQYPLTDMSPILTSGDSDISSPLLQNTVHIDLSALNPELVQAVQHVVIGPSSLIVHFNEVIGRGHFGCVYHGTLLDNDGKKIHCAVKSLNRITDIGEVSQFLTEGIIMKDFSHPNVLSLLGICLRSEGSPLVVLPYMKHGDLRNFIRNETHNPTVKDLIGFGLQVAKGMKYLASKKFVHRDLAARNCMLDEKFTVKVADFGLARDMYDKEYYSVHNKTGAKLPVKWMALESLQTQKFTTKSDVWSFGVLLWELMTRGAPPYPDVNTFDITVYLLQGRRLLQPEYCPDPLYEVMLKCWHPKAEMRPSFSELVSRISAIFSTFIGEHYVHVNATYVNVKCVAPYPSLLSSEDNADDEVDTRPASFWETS

Row | SMILES | IC50 (phosphorylated c-MET) | IC50 (MKN45 cells)
1 | CC(c1c(Cl)ccc(F)c1Cl)c1c[nH]c2ncc(-c3ccc(C(=O)N4CCCC4)cc3)cc12 (stereo not shown) [Example 4, (4-{3-[1-(2,6-Dichloro-3-fluorophenyl)ethyl]-1H-pyrrolo[2,3-b]pyridin-5-yl}phenyl)pyrrolidin-1-ylmethanone] | 0.1 to 1 µM | 0.1 to 1 µM
2 | CC(c1c(Cl)ccc(F)c1Cl)c1c[nH]c2ncc(-c3cnn(CCN4CCOCC4)c3)cc12 (stereo not shown) [Example 31, 3-[1-(2,6-Dichloro-3-fluorophenyl)ethyl]-5-[1-(2-morpholin-4-ylethyl)-1H-pyrazol-4-yl]-1H-pyrrolo[2,3-b]pyridine] | ≤ 0.1 µM | ≤ 0.1 µM
3 | CC(c1c(Cl)ccc(F)c1Cl)c1c[nH]c2ncc(C3=CCN(C=O)CC3)cc12 (stereo not shown) [Example 38, 4-{3-[1-(2,6-Dichloro-3-fluorophenyl)ethyl]-1H-pyrrolo[2,3-b]pyridin-5-yl}-3,6-dihydro-2H-pyridine-1-carbaldehyde] | 0.1 to 1 µM | 0.1 to 1 µM
4 | CC(c1c(Cl)ccc(F)c1Cl)c1c[nH]c2ncc(-c3cnn(C4CN(C(=O)N(C)C)C4)c3)cc12 (stereo not shown) [Example 59, 3-(4-{3-[1-(2,6-Dichloro-3-fluorophenyl)ethyl]-1H-pyrrolo[2,3-b]pyridin-5-yl}-pyrazol-1-yl)-azetidine-1-carboxylic acid dimethylamide] | 0.1 to 1 µM | 0.1 to 1 µM
5 | C[C@H](c1c(Cl)ccc(F)c1Cl)c1c[nH]c2ncc(C3=CCCN(C(N)=O)C3)cc12 [Example 67, 5-{3-[(S)-1-(2,6-Dichloro-3-fluorophenyl)ethyl]-1H-pyrrolo[2,3-b]pyridin-5-yl}-3,6-dihydro-2H-pyridine-1-carboxamide] | ≤ 0.1 µM | 0.1 to 1 µM
6 | CC(c1c(Cl)ccc(F)c1Cl)c1c[nH]c2ncc(-c3cnn(C4CCN(C=O)CC4)c3)cc12 (stereo not shown) [Example 47, 4-(4-{3-[1-(2,6-Dichloro-3-fluorophenyl)ethyl]-1H-pyrrolo[2,3-b]pyridin-5-yl}-pyrazol-1-yl)-piperidine-1-carbaldehyde] | ≤ 0.1 µM | ≤ 0.1 µM
7 | CC(c1c(Cl)ccc(F)c1Cl)c1c[nH]c2ncc(-c3ccc(C(=O)NCCN(C)C)cc3)cc12 (stereo not shown) [Example 20, 4-{3-[1-(2,6-Dichloro-3-fluorophenyl)ethyl]-1H-pyrrolo[2,3-b]pyridin-5-yl}-N-(2-dimethylaminoethyl)benzamide] | 0.1 to 1 µM | 0.1 to 1 µM
8 | C[C@H](c1c(Cl)ccc(F)c1Cl)c1c[nH]c2ncc(-c3cnn(C4CCN(C(N)=O)CC4)c3)cc12 [Example 72, 4-(4-{3-[(S)-1-(2,6-Dichloro-3-fluorophenyl)ethyl]-1H-pyrrolo[2,3-b]pyridin-5-yl}-pyrazol-1-yl)-piperidine-1-carboxamide] | ≤ 0.1 µM | ≤ 0.1 µM
9 | CC(c1c(Cl)ccc(F)c1Cl)c1c[nH]c2ncc(C3=CCN(C(=O)[C@H](C)O)CC3)cc12 (stereo partly drawn) [Example 41, (S)-1-(4-{3-[1-(2,6-Dichloro-3-fluorophenyl)ethyl]-1H-pyrrolo[2,3-b]-pyridin-5-yl}-3,6-dihydro-2H-pyridin-1-yl)-2-hydroxypropan-1-one] | ≤ 0.1 µM | 0.1 to 1 µM
10 | CC(=O)N1CC=C(c2cnc3[nH]cc(C(C)c4c(Cl)ccc(F)c4Cl)c3c2)CC1 (stereo not shown) [Example 39, 1-(4-{3-[1-(2,6-Dichloro-3-fluorophenyl)ethyl]-1H-pyrrolo[2,3-b]pyridin-5-yl}-3,6-dihydro-2H-pyridin-1-yl)-ethanone] | 0.1 to 1 µM | 0.1 to 1 µM
11 | CC(c1c(Cl)ccc(F)c1Cl)c1c[nH]c2ncc(C3=CCNCC3)cc12 (stereo not shown) [Example 32, 3-[1-(2,6-Dichloro-3-fluorophenyl)-ethyl]-5-(1,2,3,6-tetrahydropyridin-4-yl)-1H-pyrrolo[2,3-b]pyridine] | 0.1 to 1 µM | 0.1 to 1 µM
12 | CC(c1c(Cl)ccc(F)c1Cl)c1c[nH]c2ncc(-c3cnn(C4CN(C(N)=O)C4)c3)cc12 (stereo not shown) [Example 56, 3-(4-{3-[1-(2,6-Dichloro-3-fluorophenyl)ethyl]-1H-pyrrolo[2,3-b]pyridin-5-yl}-pyrazol-1-yl)-azetidine-1-carboxamide] | ≤ 0.1 µM | 0.1 to 1 µM
13 | C[C@H](c1c(Cl)ccc(F)c1Cl)c1c[nH]c2ncc(-c3cnn(C[C@H](O)CO)c3)cc12 [Example 90, (S)-3-(4-{3-[(S)-1-(2,6-Dichloro-3-fluorophenyl)ethyl]-1H-pyrrolo[2,3-b]pyridin-5-yl}-pyrazol-1-yl)-propane-1,2-diol] | ≤ 0.1 µM | ≤ 0.1 µM
14 | CC(c1c(Cl)ccc(F)c1Cl)c1c[nH]c2ncc(-c3ccc(C(=O)NCCO)cc3)cc12 (stereo not shown) [Example 24, 4-{3-[1-(2,6-Dichloro-3-fluorophenyl)ethyl]-1H-pyrrolo[2,3-b]pyridin-5-yl}-N-(2-hydroxyethyl)benzamide] | 0.1 to 1 µM | 0.1 to 1 µM
15 | CC(c1c(Cl)ccc(F)c1Cl)c1c[nH]c2ncc(-c3cnn(C4CN(C=O)C4)c3)cc12 (stereo not shown) [Example 55, 3-(4-{3-[1-(2,6-Dichloro-3-fluorophenyl)ethyl]-1H-pyrrolo[2,3-b]pyridin-5-yl}-pyrazol-1-yl)-azetidine-1-carbaldehyde] | ≤ 0.1 µM | ≤ 0.1 µM
16 | CC(c1c(Cl)ccc(F)c1Cl)c1c[nH]c2ncc(C3=CCN(C(=O)C(C)(C)O)CC3)cc12 (stereo not shown) [Example 42, 1-(4-{3-[1-(2,6-Dichloro-3-fluorophenyl)ethyl]-1H-pyrrolo[2,3-b]pyridin-5-yl}-3,6-dihydro-2H-pyridin-1-yl)-2-hydroxy-2-methylpropan-1-one] | 0.1 to 1 µM | 0.1 to 1 µM
17 | CNC(=O)Cn1cc(-c2cnc3[nH]cc([C@H](C)c4c(Cl)ccc(F)c4Cl)c3c2)cn1 [Example 76, 2-(4-{3-[(S)-1-(2,6-Dichloro-3-fluorophenyl)ethyl]-1H-pyrrolo[2,3-b]-pyridin-5-yl}-pyrazol-1-yl)-N-methylacetamide] | ≤ 0.1 µM | ≤ 0.1 µM
18 | CNC(=O)c1ccc(-c2cnc3[nH]cc(C(C)c4c(Cl)ccc(F)c4Cl)c3c2)cc1 (stereo not shown) [Example 5, 4-{3-[1-(2,6-Dichloro-3-fluorophenyl)ethyl]-1H-pyrrolo[2,3-b]pyridin-5-yl}-N-methylbenzamide] | 0.1 to 1 µM | 0.1 to 1 µM
19 | CC(c1c(Cl)ccc(F)c1Cl)c1c[nH]c2ncc(C3=CCN(C(N)=O)CC3)cc12 (stereo not shown) [Example 33, 4-{3-[1-(2,6-Dichloro-3-fluorophenyl)ethyl]-1H-pyrrolo[2,3-b]pyridin-5-yl}-3,6-dihydro-2H-pyridine-1-carboxamide] | ≤ 0.1 µM | 0.1 to 1 µM
20 | C[C@H](c1c(Cl)ccc(F)c1Cl)c1c[nH]c2ncc(-c3cnn(CC(=O)N4CCN(C)CC4)c3)cc12 [Example 79, 2-(4-{3-[(S)-1-(2,6-Dichloro-3-fluorophenyl)ethyl]-1H-pyrrolo[2,3-b]-pyridin-5-yl}-pyrazol-1-yl)-1-(4-methylpiperazin-1-yl)ethanone] | ≤ 0.1 µM | ≤ 0.1 µM
21 | COCCNC(=O)c1ccc(-c2cnc3[nH]cc(C(C)c4c(Cl)ccc(F)c4Cl)c3c2)cc1 (stereo not shown) [Example 6, 4-{3-[1-(2,6-Dichloro-3-fluorophenyl)ethyl]-1H-pyrrolo[2,3-b]pyridin-5-yl}-N-(2-methoxyethyl)benzamide] | 0.1 to 1 µM | 1 to 10 µM
22 | CC(c1c(Cl)ccc(F)c1Cl)c1c[nH]c2ncc(-c3cnn(C4CCC(=O)CC4)c3)cc12 (stereo not shown) [Example 89, 4-(4-{3-[1-(2,6-Dichloro-3-fluorophenyl)ethyl]-1H-pyrrolo[2,3-b]pyridin-5-yl}-pyrazol-1-yl)cyclohexanone] | ≤ 0.1 µM | ≤ 0.1 µM
23 | CC(=O)N1CC(n2cc(-c3cnc4[nH]cc(C(C)c5c(Cl)ccc(F)c5Cl)c4c3)cn2)C1 (stereo not shown) [Example 58, 1-[3-(4-{3-[1-(2,6-Dichloro-3-fluorophenyl)-ethyl]-1H-pyrrolo[2,3-b]pyridin-5-yl}-pyrazol-1-yl)-azetidin-1-yl]-ethanone] | ≤ 0.1 µM | 0.1 to 1 µM
24 | CC(c1c(Cl)ccc(F)c1Cl)c1c[nH]c2ncc(-c3cnn(C(C)(C)C(=O)O)c3)cc12 (stereo not shown) [Example 61, 2-(4-{3-[1-(2,6-Dichloro-3-fluorophenyl)ethyl]-1H-pyrrolo[2,3-b]pyridin-5-yl}-pyrazol-1-yl)-2-methylpropionic acid] | 1 to 10 µM | 1 to 10 µM
25 | CC(c1c(Cl)ccc(F)c1Cl)c1c[nH]c2ncc(-c3cnn(C4CNC4)c3)cc12 (stereo not shown) [Example 53, 5-(1-Azetidin-3-yl-1H-pyrazol-4-yl)-3-[1-(2,6-dichloro-3-fluoro-phenyl)ethyl]-1H-pyrrolo[2,3-b]pyridine] | ≤ 0.1 µM | 0.1 to 1 µM
26 | CC(c1c(Cl)ccc(F)c1Cl)c1c[nH]c2ncc(-c3cnn(C4CN(S(C)(=O)=O)C4)c3)cc12 (stereo not shown) [Example 57, 3-[1-(2,6-Dichloro-3-fluorophenyl)-ethyl]-5-[1-(1-methanesulfonylazetidin-3-yl)-1H-pyrazol-4-yl]-1H-pyrrolo[2,3-b]pyridine] | ≤ 0.1 µM | 0.1 to 1 µM
